Measurements reported in patent publication US20250011881A1, “MYC-HSF1 DUAL AMPLIFICATION AS A BIOMARKER FOR CANCER TREATMENT” (The Trustees of Indiana University, priority 2023, published 2025).
Several values for one entry are separate records, joined by “and”; a condition that tells them apart may be missing. Equal entries are not always repeated. Structures can show the parent of a compound that is named as a salt.

test system: ovarian cancer cells with (OVCAR8, OVCAR4) or without (OVSAHO, CAOV3) MYC-HSF1 amplification; assay: Epigenetic inhibitor drug screen, cell viability (Cell Titer Blue); assay type: cell-based; settings: not given

| SMILES | Non Amp - AMP (POC) 10 uM [POC] |
| --- | --- |
| C=C1C(=O)O[C@@H](CCC)[C@@H]1C(=O)O [Butyrolacetone 3] | 9.966 |
| O=C(Nc1ccc(CN2CCOCC2)cc1)c1ccc(-c2cccc(Cl)c2)o1 [CID 2011756] | 21.79 |
| CC(C)(O)/C=C/C(=O)[C@](C)(O)[C@H]1[C@H](O)C[C@@]2(C)[C@@H]3CC=C4[C@@H](C=C(O)C(=O)C4(C)C)[C@]3(C)C(=O)C[C@]12C [Cucurbitacin I] | 0.02387 |
| CCCCCCCCCCCCC/C=C/[C@@H](O)[C@@H](N)CO [D-erythro-Sphingosine (synthetic), D-erythro-Sphingosine] | 2.713 |
| O=C(O)CNC(=O)C1C(=O)N(C2CCCCC2)C(=O)N(C2CCCCC2)C1=O [Daprodustat(GSK1278863), Daprodustat] | 0.9715 |

same assay, conditions: 10 uM, 48 hrs; average relative cell viability (vs 1% DMSO) of non-amplified cells (OVSAHO, CAOV3) minus that of MYC-HSF1 amplified cells (OVCAR8, OVCAR4); positive = greater response in amplified cells

| SMILES | Non Amp - AMP (POC) 10 uM [POC] |
| --- | --- |
| O=C(NO)c1cccc(C(=O)NCCc2ccccc2)c1 [BRD73954] | 10.33 |
| CCOC(=O)c1ccc(NC(=O)O[C@H]2[C@H](OC(=O)Nc3ccc4c(c3)OCO4)[C@@H](OC(=O)Nc3ccc4c(c3)OCO4)[C@@H](OC)O[C@@H]2CO)cc1 [BRD 7552] | −0.1565 |
| CC1(C)C(=O)N=C2C1=C(O)C(=O)c1ccccc12 [BVT 948] | 22.87 |
| CCN(CCO)CCCOc1ccc2c(Nc3cc(CC(=O)Nc4cccc(F)c4)[nH]n3)ncnc2c1 [Barasertib (AZD1152-HQPA), Barasertib] | −16.49 |
| COC(=O)[C@]12CCC(C)(C)C[C@H]1[C@H]1C(=O)C=C3[C@@]4(C)C=C(C#N)C(=O)C(C)(C)[C@@H]4CC[C@@]3(C)[C@]1(C)CC2 [Bardoxolone methyl] | 6.087 |
| CCS(=O)(=O)N1CC(CC#N)(n2cc(-c3ncnc4[nH]ccc34)cn2)C1 [Baricitinib (LY3009104, INCB028050), Baricitinib] | −2.641 |
| CCS(=O)(=O)N1CC(CC#N)(n2cc(-c3ncnc4[nH]ccc34)cn2)C1.O=P(O)(O)O [Baricitirib phosphate] | 7.373 |
| O=C(/C=C/c1cccc(S(=O)(=O)Nc2ccccc2)c1)NO [Belinostat (PXD101), Belinostat] | 12.55 |
| NC(=O)c1ccccc1 [Benzamide] | −5.576 |
| CN(C)c1ccc(C(=O)NCCCCCC(=O)NO)cc1 [CAY10398] | 48.61 |
| COCCCn1c(N)c(C(=O)NC2CCCC2)c2nc3ccccc3nc21 [CAY10591] | 11.91 |
| O=C(Cc1ccccc1)Nc1ccc2oc(-c3ccc(Cl)cc3Cl)nc2c1 [CAY10722] | −11.2 |
| O=C(/C=C/c1cccc(C(=O)NO)c1)NO [CBHA] | 37.53 |
| CN(C)c1ccc(-c2nc3ncc(Cl)c(N4CCN(CC(=O)Nc5nccs5)CC4)c3[nH]2)cc1 [CCT129202] | 2.662 |
| Cc1cc(CN2CCN(c3c(Br)cnc4nc(-c5ccc(N6CCN(C)CC6)cc5)[nH]c34)CC2)no1 [CCT137690] | 9.076 |
| CN1CCN(c2cccc(Nc3nc4c(-c5ccc(S(C)(=O)=O)cc5)cccn4n3)c2)CC1 [CEP-33779] | 15.1 |
| Cl.NC(=O)[C@H](CCCN=C(N)CCl)NC(=O)c1ccccc1 [CI-Amidine (hydrochloride), CI-Amidine] | 5.451 |
| CCS(=O)(=O)N1CCC([C@@H](C)n2c(C)c(C(=O)NCc3c(OC)cc(C)[nH]c3=O)c3ccccc32)CC1 [CPI-169] | 3.906 |
| C[C@@H]1CC(=O)Nc2cccc(-c3ccc4c(c3)c(-c3cnn(C)c3)nn4C)c2N1 [CPI-637] | −2.546 |
| Cl.Clc1ccc(-c2csc(NN=C3CCCC3)n2)cc1 [CPTH2 (hydrochloride)] | 6.251 |
| Br.CC1CC/C(=N\Nc2nc(-c3ccc(Cl)cc3)cs2)C1 (stereo not shown) [CPTH6 (hydrobromide)] | 13.3 |

| SMILES | Non Amp - AMP (POC) 10 uM [POC] |
| --- | --- |
| C#Cc1cccc(Nc2ncnc3cc(OC)c(OCCCCCCC(=O)NO)cc23)c1 [CUDC-101] | 28.26 |
| COc1ccc(-c2nc(N3CCOCC3)c3sc(CN(C)c4ncc(C(=O)NO)cn4)cc3n2)cn1 [CUDC-907] | 8.159 |
| CN1CCCN(C(=O)c2cccc(-c3ccc(/C=C4/C(=O)Nc5ccc(Cl)cc54)o3)c2)CC1 [CX-6258] | −7.528 |
| Cc1nn(C)cc1CN1CCC(c2ccc(C(=O)Nc3ccccc3N)cc2)CC1 [CXD101] | 83.35 |
| Cc1nc(N)sc1-c1ccnc(Nc2ccc(N3CCOCC3)cc2)n1 [CYC116] | 8.383 |
| N#CCNC(=O)c1ccc(-c2ccnc(Nc3ccc(N4CCOCC4)cc3)n2)cc1 [CYT387] | −4.087 |
| N.N.O=C([O-])C1(C(=O)[O-])CCC1.[Pt+2] [Carboplatin] | −13.46 |
| Cn1cc(C(=O)Nc2ccc3c(c2)OCCO3)c2ccccc2c1=O [CeMMEC1] | −1.809 |
| CCS(=O)(=O)N1CCN(c2ccc(Nc3ncc(C(N)=O)c(NC4CC4)n3)cc2)CC1 [Cerdulatinib (PRT062070), Cerdulatinib] | −1.406 |
| Nc1cc(F)ccc1NC(=O)c1ccc(CNC(=O)/C=C/c2cccnc2)cc1 [Chidamide] | 33.85 |
| O=c1ccc2ccccc2o1 [Coumarin] | 5.809 |
| C=C1C[C@@]2(O)O[C@@]3(C[C@H]2C(C)C)[C@@H](C)CC[C@@H]13 [Curcumol] | −1.726 |
| CN1CCC(=C2c3ccccc3C=Cc3ccccc32)CC1 [Cyproheptadine (hydrochloride hydrate), Cyproheptadine] | 6.958 |
| Nc1ccn([C@@H]2O[C@H](CO)[C@@H](O)[C@@H]2O)c(=O)n1 [Cytarabine] | 1.9 |
| COC(=O)CNC(=O)C(=O)OC [DMOG] | −8.654 |
| CO[C@@H](C(=O)N1Cc2n[nH]c(NC(=O)c3ccc(N4CCN(C)CC4)cc3)c2C1)c1ccccc1 [Danusertib (PHA-739358), Danusertib] | −1.72 |
| CCCCCCCCCC(=O)N[C@@H](Cc1c[nH]c2ccccc12)C(=O)N[C@H](CC(N)=O)C(=O)N[C@@H](CC(=O)O)C(=O)N[C@@H]1C(=O)NCC(=O)N[C@@H](CCCN)C(=O)N[C@@H](CC(=O)O)C(=O)N[C@H](C)C(=O)N[C@@H](CC(=O)O)C(=O)NCC(=O)N[C@H](CO)C(=O)N[C@@H]([C@H](C)CC(=O)O)C(=O)N[C@@H](CC(=O)c2ccccc2N)C(=O)O[C@@H]1C [Daptomycin] | 3.207 |
| CC[C@@](C)(Nc1ccnc(-c2c[nH]c3ncccc23)n1)C(=O)NCC(F)(F)F [Decernotinib(VX-509), Decernotinib] | 7.322 |
| Oc1cc(O)c2cc(O)c(-c3cc(O)c(O)c(O)c3)[o+]c2c1 [Delphinidin (chloride), Delphinidin] | 9.89 |
| C[C@@H]1CC[C@@]2(OC1)O[C@H]1C[C@H]3[C@@H]4CC=C5C[C@@H](O)CC[C@]5(C)[C@H]4CC[C@]3(C)[C@H]1[C@@H]2C [Diosgenin] | 5.646 |
| COc1cc2c(cc1OC)C(=O)C(CC1CCN(Cc3ccccc3)CC1)C2 (stereo not shown) [Donepezil HCl] | −4.516 |

same assay, conditions: 10 uM, 48 hrs; average relative cell viability (vs 1% DMSO) of non-amplified cells (OVSAHO, CAOV3) minus that of MYC-HSF1 amplified cells (OVCAR8, OVCAR4); positive = greater response in amplified cells; 10 µM

| SMILES | Non Amp - AMP (POC) 10 uM |
| --- | --- |
| CCOC(=O)Nc1cc(-c2ccc(C)c(NS(C)(=O)=O)c2)nn2c(C)nnc12 [Bromosporine] | 15.35 POC and 21.43 POC |
| Nc1ccc(S(=O)(=O)NCCc2ccccc2)cc1 [C-7280948] | 13.45 POC |
| CC(C)(C)OC(=O)Nc1ccc(-c2cc(C(=O)NCCCCCCC(=O)NO)no2)cc1 [CAY10603] | 43.89 POC and 29.05 POC |
| CCOC(=O)NCCCC(=O)NCCc1ccccc1 [CAY10683, Santacruzamate A] | 18.98 POC |
| CC(=O)Nc1ccc(C(=O)Nc2ccccc2N)cc1 [CI-994, Tacedinaline] | 25.18 POC |
| COc1ccc2c(c[n+](C)c3c4cc5c(cc4ccc23)OCO5)c1OC [Chelerythrine Chloride] | −21.5 POC |
| COc1ccc2c(c[n+](C)c3c4cc5c(cc4ccc23)OCO5)c1OC [Chelerythrine] | −18.62 POC |
| CCCC(CCC)C(=O)O [Divalproex Sodium] | −6.451 POC |

same assay, conditions: 10 uM, 48 hrs; average relative cell viability (vs 1% DMSO) of non-amplified cells (OVSAHO, CAOV3) minus that of MYC-HSF1 amplified cells (OVCAR8, OVCAR4); positive = greater response in amplified cells; listed as C7280948, 10 µM

| SMILES | Non Amp - AMP (POC) 10 uM [POC] |
| --- | --- |
| Nc1ccc(S(=O)(=O)NCCc2ccccc2)cc1 [C-7280948] | 0.5735 |

same assay, conditions: 10 uM, 48 hrs; average relative cell viability (vs 1% DMSO) of non-amplified cells (OVSAHO, CAOV3) minus that of MYC-HSF1 amplified cells (OVCAR8, OVCAR4); positive = greater response in amplified cells; listed as CI994 (Tacedinaline), 10 µM

| SMILES | Non Amp - AMP (POC) 10 uM [POC] |
| --- | --- |
| CC(=O)Nc1ccc(C(=O)Nc2ccccc2N)cc1 [CI-994, Tacedinaline] | 16.47 |

same assay, conditions: 10 uM, 48 hrs; average relative cell viability (vs 1% DMSO) of non-amplified cells (OVSAHO, CAOV3) minus that of MYC-HSF1 amplified cells (OVCAR8, OVCAR4); positive = greater response in amplified cells; listed as Santacruzamate A (CAY10683), 10 µM

| SMILES | Non Amp - AMP (POC) 10 uM [POC] |
| --- | --- |
| CCOC(=O)NCCCC(=O)NCCc1ccccc1 [CAY10683, Santacruzamate A] | −0.9653 |
